Laboratory results: paper PMC11343938, “Micro-scale screening of genetically modified Fusarium fujikuroi strain extends the apicidin family” (Natural Products and Bioprospecting, 2024)
Read-outs that look alike come from different tables or passages of the source. Square brackets hold non-standard residues; d marks the D form. Peptide text beside a SMILES is read from it. Trp(1-OMe) = COn1cc(C[C@H](N)C(=O)O)c2ccccc21; Asu = N[C@@H](CCCCCC(=O)O)C(=O)O; dPip = O=C(O)[C@H]1CCCCN1

How the values were obtained:
in vitro [1] = conditions: human
Plasmodium falciparum = conditions: cited from earlier work
HepG2 = conditions: human liver carcinoma cell line HepG2; cited from earlier work
P. falciparum NF54 = test: In vitro antiparasitic activity against P. falciparum; type: cell-based; conditions: Plasmodium falciparum, P. falciparum NF54, intraerythrocytic forms, read-out: IC50 inhibition of P. falciparum growth
Description: (§1) Furthermore, the whole set of isolated compounds was tested in vitro against T. brucei rhodesiense (bloodstream trypomastigotes) and P. falciparum (intraerythrocytic forms). All assays were performed using validated protocols at the Swiss TPH [34].

HDAC6 = biological target: T1, HDAC6 (Homo sapiens, UniProt Q9UBN7); test: In vitro HDAC inhibition assay (ZMAL substrate), HDAC6; type: biochemical
T1 construct: purchased BPS Bioscience 50006
T1 sequence (Q9UBN7 1-1215): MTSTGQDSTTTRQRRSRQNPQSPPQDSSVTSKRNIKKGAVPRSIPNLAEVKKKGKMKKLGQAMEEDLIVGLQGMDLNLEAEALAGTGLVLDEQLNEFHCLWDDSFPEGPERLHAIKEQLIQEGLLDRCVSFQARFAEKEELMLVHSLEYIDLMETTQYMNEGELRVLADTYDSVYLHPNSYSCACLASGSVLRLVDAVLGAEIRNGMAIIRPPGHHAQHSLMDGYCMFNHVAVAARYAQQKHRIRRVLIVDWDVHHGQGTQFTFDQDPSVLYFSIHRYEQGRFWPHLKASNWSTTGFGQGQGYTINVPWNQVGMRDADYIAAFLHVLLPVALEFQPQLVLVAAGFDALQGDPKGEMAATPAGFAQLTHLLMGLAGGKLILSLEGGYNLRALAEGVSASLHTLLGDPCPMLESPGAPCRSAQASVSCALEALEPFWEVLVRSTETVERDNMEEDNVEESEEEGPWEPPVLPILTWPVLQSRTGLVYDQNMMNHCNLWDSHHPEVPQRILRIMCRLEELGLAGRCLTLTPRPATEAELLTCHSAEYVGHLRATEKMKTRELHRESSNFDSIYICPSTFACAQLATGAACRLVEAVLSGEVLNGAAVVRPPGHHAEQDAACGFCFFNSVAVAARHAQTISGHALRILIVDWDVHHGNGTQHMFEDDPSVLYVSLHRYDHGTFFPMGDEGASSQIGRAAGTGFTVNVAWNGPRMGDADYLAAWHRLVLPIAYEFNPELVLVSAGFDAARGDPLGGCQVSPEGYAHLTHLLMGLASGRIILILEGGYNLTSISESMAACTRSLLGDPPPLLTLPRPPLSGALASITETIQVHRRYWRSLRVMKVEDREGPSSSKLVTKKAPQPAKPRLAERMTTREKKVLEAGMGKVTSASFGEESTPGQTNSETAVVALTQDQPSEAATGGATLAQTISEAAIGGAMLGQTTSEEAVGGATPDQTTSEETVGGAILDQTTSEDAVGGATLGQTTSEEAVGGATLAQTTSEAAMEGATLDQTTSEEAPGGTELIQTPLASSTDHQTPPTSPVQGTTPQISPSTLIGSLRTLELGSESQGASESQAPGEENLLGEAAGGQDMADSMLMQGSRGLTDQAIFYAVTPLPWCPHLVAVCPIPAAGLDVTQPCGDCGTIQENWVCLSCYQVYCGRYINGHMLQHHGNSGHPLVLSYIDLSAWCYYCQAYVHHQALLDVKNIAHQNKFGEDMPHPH
Description: (§2) In vitro inhibitory activity against HDAC1-3 and 6 was determined using our previously published assay protocol. […] Next, the total assay volume (50 µL, max. 1% DMSO) was incubated at 37 °C for 90 min. Subsequently, 50 µL trypsin solution (0.4 mg/mL trypsin in buffer: 50 mM Tris- HCl, pH 8.0, 100 mM NaCl) was added, followed by additional 30 min of incubation at 37 °C. Fluorescence (excitation: 355 nm, emission: 460 nm) was measured using a FLUOstar OPTIMA microplate reader (BMG LABTECH). The IC50 values were determined by generating normalized dose–response curves using the build-in "log(inhibitor) vs. response (three parameters)" equation provided by GraphPad Prism (GraphPad Prism 9.0, San Diego, USA). Compounds were tested in duplicates, reported mean IC50 values, including standard deviation, are calculated from at least two independent experiments.

in vitro [2] = conditions: rat
HDAC1 = biological target: T2, HDAC1 (Homo sapiens, UniProt Q13547); test: In vitro HDAC inhibition assay (ZMAL substrate), HDAC1; type: biochemical
T2 construct: purchased BPS Bioscience 50051
Description: as §2

HepG2 (HB-8065) = conditions: resazurin assay, 24 h incubation, 0.01-100 µM tested
A549 (CCL-185) = conditions: resazurin assay, 24 h incubation, 0.01-100 µM tested
HDAC3/NcoR2 = biological target: T3, HDAC3/NcoR2 (Homo sapiens, UniProt O15379); test: In vitro HDAC inhibition assay (ZMAL substrate), HDAC3; type: biochemical; conditions: mean ± SD of at least two independent experiments
T3 construct: purchased BPS Bioscience 50003
Description: as §2

HDAC2 = biological target: T4, HDAC2 (Homo sapiens, UniProt Q92769); test: biochemical; conditions: mean ± SD of at least two independent experiments
T4 construct: purchased BPS Bioscience 50052
Description: as §2, with “USA).” for “USA). Compounds were tested in duplicates, reported mean IC50 values, including standard deviation, are calculated from at least two independent experiments.”

[3] = test system: Trypanosoma brucei rhodesiense STIB 900; test: In vitro antiparasitic activity against T. brucei rhodesiense; type: cell-based; conditions: bloodstream trypomastigotes
Description: as §1

[4] = mean ± SD of at least two independent experiments, [b] < 30% inhibition at the stated concentration, read-out: IC50 HDAC6
[5] = mean ± SD of at least two independent experiments, [b] < 30% inhibition at the stated concentration, read-out: IC50 HDAC1

T2 sequence (Q13547 whole entry): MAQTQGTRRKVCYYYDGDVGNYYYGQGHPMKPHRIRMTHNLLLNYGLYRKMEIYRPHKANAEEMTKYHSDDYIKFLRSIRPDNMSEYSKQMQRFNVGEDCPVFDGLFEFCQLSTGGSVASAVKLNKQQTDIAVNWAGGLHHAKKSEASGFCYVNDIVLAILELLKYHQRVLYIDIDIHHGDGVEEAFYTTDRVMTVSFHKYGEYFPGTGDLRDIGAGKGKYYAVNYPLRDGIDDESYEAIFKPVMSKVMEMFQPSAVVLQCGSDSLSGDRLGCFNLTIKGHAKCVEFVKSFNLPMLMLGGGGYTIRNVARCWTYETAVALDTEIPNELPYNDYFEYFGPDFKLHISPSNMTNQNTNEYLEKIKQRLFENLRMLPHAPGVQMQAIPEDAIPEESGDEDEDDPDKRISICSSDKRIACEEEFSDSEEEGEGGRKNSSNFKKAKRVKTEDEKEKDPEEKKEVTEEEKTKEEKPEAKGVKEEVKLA
T4 sequence (Q92769 whole entry): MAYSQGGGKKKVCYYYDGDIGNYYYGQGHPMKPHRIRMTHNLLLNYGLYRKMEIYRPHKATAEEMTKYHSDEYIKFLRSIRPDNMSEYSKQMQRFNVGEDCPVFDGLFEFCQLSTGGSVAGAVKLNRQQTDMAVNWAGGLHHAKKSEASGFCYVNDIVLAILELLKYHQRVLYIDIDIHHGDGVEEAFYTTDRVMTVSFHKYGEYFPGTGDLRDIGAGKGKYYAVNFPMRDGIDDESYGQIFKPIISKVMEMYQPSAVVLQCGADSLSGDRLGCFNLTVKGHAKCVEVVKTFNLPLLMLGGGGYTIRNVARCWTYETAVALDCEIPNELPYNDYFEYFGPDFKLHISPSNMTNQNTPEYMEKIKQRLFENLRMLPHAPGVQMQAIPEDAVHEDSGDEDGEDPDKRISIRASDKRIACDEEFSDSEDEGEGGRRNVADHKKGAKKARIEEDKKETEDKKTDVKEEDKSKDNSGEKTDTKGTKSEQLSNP
T3 sequence (O15379 whole entry): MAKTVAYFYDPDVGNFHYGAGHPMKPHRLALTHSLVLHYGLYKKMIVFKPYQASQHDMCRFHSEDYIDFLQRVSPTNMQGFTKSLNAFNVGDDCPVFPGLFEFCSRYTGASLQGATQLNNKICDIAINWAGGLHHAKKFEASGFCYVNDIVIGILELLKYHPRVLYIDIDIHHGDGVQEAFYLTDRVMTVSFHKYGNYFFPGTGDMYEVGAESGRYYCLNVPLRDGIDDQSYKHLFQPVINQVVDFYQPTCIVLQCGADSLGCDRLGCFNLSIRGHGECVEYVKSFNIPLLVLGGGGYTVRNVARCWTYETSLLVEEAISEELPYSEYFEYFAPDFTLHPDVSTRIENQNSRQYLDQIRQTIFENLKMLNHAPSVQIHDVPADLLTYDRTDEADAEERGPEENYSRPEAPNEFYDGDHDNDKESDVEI
T3 sequence (Q9Y618 395-489 partner limits assumed): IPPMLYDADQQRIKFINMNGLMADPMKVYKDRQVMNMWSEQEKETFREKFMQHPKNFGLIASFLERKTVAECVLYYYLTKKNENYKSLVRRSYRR

Compound	IC50 (in vitro [1]) [nM]	IC50 (Plasmodium falciparum; read-out: IC50 in the P. falciparum assay) [nM]	IC50 (HepG2) [nM]	IC50 (P. falciparum NF54) [nM]	IC50 (HDAC6; [4]) [nM]	IC50 (in vitro [2]) [nM]	IC50 (HDAC1; [5]) [nM]	IC50 cytotoxicity HepG2 (HepG2 (HB-8065))	IC50 cytotoxicity A549 (A549 (CCL-185))	IC50 (HDAC3/NcoR2) [nM]	IC50 (HDAC2) [nM]	IC50 (Plasmodium falciparum; read-out: IC50 antiparasitic activity against Plasmodium falciparum) [nM]	IC50 (HDAC6) [nM]	Activity against Trypanosoma brucei rhodesiense STIB 900 [3]	IC50 (HDAC1) [nM]
CCC(=O)CCCCC[C@@H]1NC(=O)[C@H]2CCCCN2C(=O)[C@H]([C@@H](C)CC)NC(=O)[C@H](Cc2cn(OC)c3ccccc23)NC1=O [apicidin (5), apicidin]	2700	200	1300	–	–	–	–	–	–	–	–	–	–	–	–
COn1cc(C[C@@H]2NC(=O)[C@H](CCCCCCO)NC(=O)[C@H]3CCCCN3C(=O)[C@H](Cc3ccccc3)NC2=O)c2ccccc21 [Apicidin K (3), (3S,6S,9S,12R)-3-benzyl-9-(6-hydroxyhexyl)-6-[(1-methoxyindol-3-yl)methyl]-1,4,7,10-tetrazabicyclo[10.4.0]hexadecane-2,5,8,11-tetrone]	–	–	–	1100	> 10000	7200	> 3330	–	–	–	–	–	–	–	–
COn1cc(C[C@@H]2NC(=O)[C@H](CCCCCC(=O)O)NC(=O)[C@H]3CCCN3C(=O)[C@H](Cc3ccccc3)NC2=O)c2ccccc21 [Apicidin J (2), 6-[(3S,6S,9S,12R)-3-benzyl-6-[(1-methoxyindol-3-yl)methyl]-2,5,8,11-tetraoxo-1,4,7,10-tetrazabicyclo[10.3.0]pentadecane-9-yl]hexanoate] (cyclo([Asu][Trp(1-OMe)]F[dP]))	–	–	–	1100	9870 ± 1400	46500	342 ± 18	no IC50 could be calculated	no IC50 could be calculated	754 ± 112	633 ± 28	–	–	–	–
COn1cc(C[C@@H]2NC(=O)[C@H](CCCCCC(=O)O)NC(=O)[C@H]3CCCCN3C(=O)[C@H](Cc3ccccc3)NC2=O)c2ccccc21 [Apicidin F (1), 6-[(3S,6S,9S,12R)-3-benzyl-6-[(1-methoxyindol-3-yl)methyl]-2,5,8,11-tetraoxo-1,4,7,10-tetrazabicyclo[10.4.0]hexadecane-9-yl]hexanoic acid] (cyclo([Asu][Trp(1-OMe)]F[dPip]))	–	–	110000	510	6380 ± 1570	63700	102 ± 4	–	–	202 ± 26	164 ± 17	670	–	–	–
COn1cc(C[C@@H]2NC(=O)[C@H](CCCCCCO)NC(=O)[C@H]3CCCN3C(=O)[C@H](Cc3ccccc3)NC2=O)c2ccccc21 [Apicidin L (4), (3S,6S,9S,14aR)-9-benzyl-3-(6-hydroxyhexyl)-6-[(1-methoxy-1H-indol-3-yl)methyl]decahydropyrrolo[1,2-a][1,4,7,10]tetraazacyclododecine-1,4,7,10-tetraone]	–	–	–	2100	–	20000	–	no IC50 could be calculated	no IC50 could be calculated	–	–	–	> 10000	no effect	> 10000
